Like-named read-outs stand apart in the source and are kept apart here. Square brackets hold non-standard residues; d marks the D form. Ends that are not written are not given here. pGlu = O=C1CC[C@@H](C(=O)O)N1
What was measured:
[1] = test system: human bone marrow stromal cell line, C6; assay: Induction of colony stimulating activity by stromal cells; supernatant tested in soft agar assay (CFU-C); format: cell-based; conditions: 5% Supernatant, Lewis rat bone marrow cells
Protocol: The human bone marrow stromal cell line, C6, is grown to confluency in plastic tissue culture dishes in RPMI-1640 medium and 5% FBS. On the day prior to the experiment this medium is changed to DMEM without added serum. To these cultures, the compounds are added for one hour, then washed from the cultures. The medium is replaced with fresh DMEM and the cells are incubated for 24 hours at 37°C, 5% CO₂. After 24 hours the C6 cell culture supernatant is collected, sterile filtered, and frozen until it can be assayed for the presence of hematopoietic colony stimulating activity (CSA) as set forth below.
Bone marrow cells are obtained from Lewis rats. They are adjusted to 10⁶ cells/ml in DMEM without serum. A single later agar system utilizing the following is used: DMEM enriched with nutrients (NaHCO₃, pyruvate, amino acids, vitamins, and HEPES buffer); 0.3% Bacto agar, and 20% Lewis rat serum. To this are added dilutions of C6 cell line supernatant (10-2.5%) from above along with rat bone marrow cells (final concentration = 10⁵ cells/ml). The agar plates are incubated at 37°C, 5% CO₂ for 7-8 days. Colonies of proliferating bone marrow cells (CFU-C) are counted utilizing a microscope. The number of agar colonies counted is proportional to the amount of CSA present within the C6 bone marrow stromal cell line supernatant.

myelopoietic cells [2] = conditions: in vitro; cited from earlier work
myelopoietic cells [3] = conditions: in vivo; cited from earlier work
murine CFU-gm = murine CFU-gm in vitro; cited from earlier work
human CFU-gm = human CFU-gm in vitro; cited from earlier work
[4] = test system: murine myelopoietic cells; conditions: in vivo; cited from earlier work

## (pGlu-Glu-Asp)₂-Sub-(Lys)₂ [Example 2]
[1]; Dose 0.01 ng/ml
  Hematopoietic Colony Stimulating Activity, Percent of Control: 97% of Control
[1]; Dose 0.1 ng/ml
  Hematopoietic Colony Stimulating Activity, Percent of Control: 154% of Control
[1]; Dose 1 ng/ml
  Hematopoietic Colony Stimulating Activity, Percent of Control: 188% of Control
[1]; Dose 10 ng/ml
  Hematopoietic Colony Stimulating Activity, Percent of Control: 207% of Control
[1]; Dose 100 ng/ml
  Hematopoietic Colony Stimulating Activity, Percent of Control: 241% of Control
[1]; Dose 1000 ng/ml
  Hematopoietic Colony Stimulating Activity, Percent of Control: 192% of Control

## pGlu-Glu-Asp-Cys-Lys ([pGlu]EDCK)
Myelopoietic cells [2]
  effect on myelopoietic cells: selective inhibitory effect
Myelopoietic cells [3]
  effect on myelopoietic cells: selective inhibitory effect

## HP-5: oxidation product of pGlu-Glu-Asp-Cys-Lys, a dimer formed by disulfide bridges (EP-A-0267741) ([pGlu]EDCK; also: disulfide-linked dimer (oxidation product))
Murine CFU-gm
  colony formation of CFU-gm: strongly stimulates colony formation
Human CFU-gm
  colony formation of CFU-gm: strongly stimulates colony formation
[4]
  effect on murine myelopoietic cells: up regulates murine myelopoietic cells

Reference: patent EP0408371B1, “Hemoregulatory peptides” (SMITHKLINE BEECHAM CORPORATION, priority 1989, dated 1994)
